Laboratory results from patent US20040231558A1, “Water-color ink” (priority 2001, published 2004).

How the values were obtained:
Format in all cases: physicochemical
[1] = Evaluation of light fastness-1 (OD value of printed portion after 100 hours xenon fadeometer); settings: for (A)-1 light fastness-1: ink prepared as in Example 1 from the salt named in the row, OD value of printed portion after 100 hours xenon fadeometer
Protocol: (§1) The prepared ink was filled in an ink cartridge for a piezo-type ink-jet printer EM-930C (manufactured by Seiko Epson). The printing was performed with this printer, and the light fastness was evaluated. Further, the storage stability of the ink was evaluated.
(A)-1 Evaluation of Light Fastness-1
Printing density (OD value) was measured after irradiating a printed portion with light for 100 hours using a xenon fadeometer (manufactured by Suga Shikenki) to evaluate the light fastness.

[2] = Evaluation of moisture resistance (image-recorded paper at 40° C. and humidity 85%, visual observation); settings: for (B) moisture resistance: image-recorded paper at 40° C. and humidity 85%, visually observed
[3] = Evaluation of storage stability of ink (40° C. for 3 months, insoluble matter and clogging); settings: recording liquid stored at 40° C. for 3 months; insoluble matter and clogging
Protocol: as §1
(C) Evaluation of Storage Stability of Ink:
After a recording liquid was stored at 40° C. for 3 months, it was observedwhether or not an insoluble matterwas precipitated, and whether or not clogging occurred after continuous recording with the foregoing printer for a long period of time.

[4] = Evaluation of light fastness-2 (OD value of printed portion after 400 hours xenon fadeometer); settings: ink prepared as in Example 1 from the salt named in the row; OD value of printed portion after 400 hours xenon fadeometer
Protocol: as §1
(A)-2 Evaluation of Light Fastness-2
Printing density (OD value) was measured after irradiating a printed-portion with light for 400 hours using axenon fadeometer (manufactured by Suga Shikenki), and the light fastness was evaluated.

[5] = ink prepared as in Example 1, for comparative inks in comparison to the ink of the invention

light fastness (in words) [1, 5]	moisture resistance (in words) [2, 5]	(C) storage stability [3]	(A)-1 light fastness-1 [1]	(A)-2 light fastness-2 [4]	(B) moisture resistance [2]	SMILES
poor	poor	◯	–	–	–	O=C(O)c1nn(-c2ccc(S(=O)(=O)O)cc2)c(O)c1N=Nc1ccc(S(=O)(=O)O)cc1 [C. I. Acid Yellow 23, reference compound]
–	–	◯	⊚	◯	⊚	Cc1c(N=Nc2cc(C(=O)O)ccc2C(=O)O)c(O)n(CCCNc2nc(Cl)nc(NCCCn3c(O)c(N=Nc4cc(C(=O)O)ccc4C(=O)O)c(C)c(C#N)c3=O)n2)c(=O)c1C#N [Compound 247]
–	–	Δ	⊚	⊚	⊚	N#Cc1c(C(F)(F)F)c(N=Nc2cc(C(=O)O)ccc2C(=O)O)c(O)n(CCNc2nc(Cl)nc(NCCn3c(O)c(N=Nc4cc(C(=O)O)ccc4C(=O)O)c(C(F)(F)F)c(C#N)c3=O)n2)c1=O [Compound 248]
–	–	Δ	⊚	◯	⊚	Cc1c(N=Nc2cc(C(=O)O)ccc2C(=O)O)c(O)n(CCCCCCNc2nc(Cl)nc(NCCn3c(O)c(N=Nc4cc(C(=O)O)ccc4C(=O)O)c(C)c(C#N)c3=O)n2)c(=O)c1C#N [Compound 249]
–	–	Δ	⊚	◯	⊚	CCc1c(N=Nc2cc(C(=O)O)ccc2C(=O)O)c(O)n(CCNc2nc(Cl)nc(NCCn3c(O)c(N=Nc4cc(C(=O)O)ccc4C(=O)O)c(C(F)(F)F)c(C#N)c3=O)n2)c(=O)c1C#N [Compound 250]
–	–	Δ	⊚	⊚	⊚	CCc1c(N=Nc2cc(C(=O)O)ccc2C(=O)O)c(O)n(CCNc2nc(Cl)nc(NCCn3c(O)c(N=Nc4cc(C(=O)O)ccc4C(=O)O)c(CC)c(C#N)c3=O)n2)c(=O)c1C#N [Compound 251]
–	–	Δ	⊚	◯	⊚	Cc1c(N=Nc2cc(C(=O)O)ccc2C(=O)O)c(O)n(CCNc2nc(Cl)nc(NCCn3c(O)c(N=Nc4cc(C(=O)O)ccc4C(=O)O)c(C)c(C(N)=O)c3=O)n2)c(=O)c1C(N)=O [Compound 252]
–	–	◯	⊚	◯	⊚	CCOC(=O)Cc1c(N=Nc2cc(C(=O)O)ccc2C(=O)O)c(O)n(CCNc2nc(Cl)nc(NCCn3c(O)c(N=Nc4cc(C(=O)O)ccc4C(=O)O)c(CC(=O)OCC)c(C#N)c3=O)n2)c(=O)c1C#N [Compound 255]
–	–	Δ	⊚	◯	⊚	Cc1c(N=Nc2c(C(=O)O)cccc2C(=O)O)c(O)n(CCNc2nc(Cl)nc(NCCn3c(O)c(N=Nc4c(C(=O)O)cccc4C(=O)O)c(C)c(C#N)c3=O)n2)c(=O)c1C#N [Compound 256]
–	–	Δ	⊚	◯	⊚	Cc1c(N=Nc2cccc(C(=O)O)c2C(=O)O)c(O)n(CCCNc2nc(Cl)nc(NCCCn3c(O)c(N=Nc4cccc(C(=O)O)c4C(=O)O)c(C)c(C#N)c3=O)n2)c(=O)c1C#N [Compound 260]
–	–	Δ	⊚	◯	⊚	N#Cc1c(-c2ccccc2)c(N=Nc2cc(C(=O)O)ccc2C(=O)O)c(O)n(CCNc2nc(Cl)nc(NCCn3c(O)c(N=Nc4cc(C(=O)O)ccc4C(=O)O)c(-c4ccccc4)c(C#N)c3=O)n2)c1=O [Compound 261]
–	–	Δ	⊚	◯	⊚	Cc1c(N=Nc2cc(C(=O)O)ccc2C(=O)O)c(O)n(CCNc2nc(NCCn3c(O)c(N=Nc4cc(C(=O)O)ccc4C(=O)O)c(C)c(C#N)c3=O)nc(NCCn3c(O)c(N=Nc4cc(C(=O)O)ccc4C(=O)O)c(C)c(C#N)c3=O)n2)c(=O)c1C#N [Compound 262]
–	–	Δ	⊚	◯	⊚	Cc1c(N=Nc2cc(C(=O)O)ccc2C(=O)O)c(O)n(CCCCCCNc2nc(NCCCCCCn3c(O)c(N=Nc4cc(C(=O)O)ccc4C(=O)O)c(C)c(C#N)c3=O)nc(NCCCCCCn3c(O)c(N=Nc4cc(C(=O)O)ccc4C(=O)O)c(C)c(C#N)c3=O)n2)c(=O)c1C#N [Compound 264]
–	–	Δ	⊚	⊚	⊚	N#Cc1c(C(F)(F)F)c(N=Nc2cc(C(=O)O)ccc2C(=O)O)c(O)n(CCNc2nc(NCCn3c(O)c(N=Nc4cc(C(=O)O)ccc4C(=O)O)c(C(F)(F)F)c(C#N)c3=O)nc(NCCn3c(O)c(N=Nc4cc(C(=O)O)ccc4C(=O)O)c(C(F)(F)F)c(C#N)c3=O)n2)c1=O [Compound 265]
–	–	Δ	⊚	◯	⊚	Cc1c(N=Nc2c(C(=O)O)cccc2C(=O)O)c(O)n(CCNc2nc(NCCn3c(O)c(N=Nc4c(C(=O)O)cccc4C(=O)O)c(C)c(C#N)c3=O)nc(NCCn3c(O)c(N=Nc4c(C(=O)O)cccc4C(=O)O)c(C)c(C#N)c3=O)n2)c(=O)c1C#N [Compound 267]
–	–	Δ	⊚	◯	⊚	Cc1c(N=Nc2cccc(C(=O)O)c2C(=O)O)c(O)n(CCNc2nc(NCCn3c(O)c(N=Nc4cccc(C(=O)O)c4C(=O)O)c(C)c(C#N)c3=O)nc(NCCn3c(O)c(N=Nc4cccc(C(=O)O)c4C(=O)O)c(C)c(C#N)c3=O)n2)c(=O)c1C#N [Compound 268]
–	–	Δ	⊚	⊚	⊚	Cc1c(N=Nc2cc(C(=O)O)ccc2C(=O)O)c(O)n(CCCNc2nc(NCCn3c(O)c(N=Nc4cc(C(=O)O)ccc4C(=O)O)c(C)c(C#N)c3=O)nc(NCCn3c(O)c(N=Nc4c(C(=O)O)cccc4C(=O)O)c(C)c(C#N)c3=O)n2)c(=O)c1C#N [Compound 270]
–	–	◯	⊚	⊚	⊚	CCCCc1c(N=Nc2cc(C(=O)O)ccc2C(=O)O)c(O)n(CCNc2nc(NCCn3c(O)c(N=Nc4cc(C(=O)O)ccc4C(=O)O)c(CCCC)c(C#N)c3=O)nc(NCCn3c(O)c(N=Nc4cc(C(=O)O)ccc4C(=O)O)c(CCCC)c(C#N)c3=O)n2)c(=O)c1C#N [Compound 271]
–	–	◯	⊚	⊚	⊚	CCc1c(N=Nc2cc(C(=O)O)ccc2C(=O)O)c(O)n(CCNc2nc(NCCn3c(O)c(N=Nc4cc(C(=O)O)ccc4C(=O)O)c(CC)c(C#N)c3=O)nc(NCCn3c(O)c(N=Nc4cc(C(=O)O)ccc4C(=O)O)c(CC)c(C#N)c3=O)n2)c(=O)c1C#N [Compound 273]
–	–	Δ	⊚	◯	⊚	Cc1c(N=Nc2cc(C(=O)O)ccc2C(=O)O)c(O)n(CCCNc2nc(NCCn3c(O)c(N=Nc4cc(C(=O)O)ccc4C(=O)O)c(C)c(C#N)c3=O)nc(NCCn3c(O)c(N=Nc4c(C(=O)O)cccc4C(=O)O)c(C)c(C#N)c3=O)n2)c(=O)c1C#N [Compound 274]
–	–	Δ	⊚	◯	⊚	CCCCc1c(N=Nc2cc(C(=O)O)ccc2C(=O)O)c(O)n(CCNc2nc(Cl)nc(NCCn3c(O)c(N=Nc4cc(C(=O)O)ccc4C(=O)O)c(CCCC)c(C#N)c3=O)n2)c(=O)c1C#N [Compound 278]
–	–	◯	⊚	⊚	⊚	CCc1c(N=Nc2cc(C(=O)O)ccc2C(=O)O)c(O)n(CCCNC(=O)c2cc(C(=O)O)c(C(=O)NCCCn3c(O)c(N=Nc4cc(C(=O)O)ccc4C(=O)O)c(C)c(C#N)c3=O)cc2C(=O)O)c(=O)c1C#N [Compound 280]
–	–	◯	⊚	◯	⊚	Cc1c(N=Nc2cc(C(=O)O)ccc2C(=O)O)c(O)n(CCCCCCNC(=O)c2cc(C(=O)O)c(C(=O)NCCCCCCn3c(O)c(N=Nc4cc(C(=O)O)ccc4C(=O)O)c(C)c(C#N)c3=O)cc2C(=O)O)c(=O)c1C#N [Compound 281]
–	–	◯	⊚	⊚⊚	⊚	CCc1c(N=Nc2cc(C(=O)O)ccc2C(=O)O)c(O)n(CCNC(=O)c2cc(C(=O)O)c(C(=O)NCCn3c(O)c(N=Nc4cc(C(=O)O)ccc4C(=O)O)c(CC)c(C#N)c3=O)cc2C(=O)O)c(=O)c1C#N [Compound 283]
–	–	◯	⊚	⊚⊚	⊚	CCCCc1c(N=Nc2cc(C(=O)O)ccc2C(=O)O)c(O)n(CCNC(=O)c2cc(C(=O)O)c(C(=O)NCCn3c(O)c(N=Nc4cc(C(=O)O)ccc4C(=O)O)c(CCCC)c(C#N)c3=O)cc2C(=O)O)c(=O)c1C#N [Compound 284]
